Consider 26 molecules from patent US10287301B2 (Achillion Pharmaceuticals, Inc., priority 2015, dated 2019).

Structures are written as SMILES.

Sequence of Human Factor D (P00746 26-253): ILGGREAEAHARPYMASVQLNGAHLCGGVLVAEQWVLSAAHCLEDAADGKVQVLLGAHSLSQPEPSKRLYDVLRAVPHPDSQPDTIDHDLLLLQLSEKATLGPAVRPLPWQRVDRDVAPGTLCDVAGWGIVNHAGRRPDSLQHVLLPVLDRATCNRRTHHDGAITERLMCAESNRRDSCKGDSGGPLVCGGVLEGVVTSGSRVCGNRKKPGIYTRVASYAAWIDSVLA

The first assay deals with Human Factor D (Homo sapiens (Human), UniProt P00746). Briefly: Human Factor D Assay. It is filed as biochemical. The note with it: Human Factor D, Table 3; read-out: IC50. An outline of the steps:
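First, compound at various concentrations is mixed with 80 nM (final) human serum Factor D in 50 mM Tris, 1M NaCl, pH 7.5 for 5 min at room temperature.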
In general, IC50 refers to the concentration at which inhibition is half-maximal. For `CC(=O)c1nn(CC(=O)N2CC[C@H]2C(=O)Nc2cccc(Br)n2)c2ccc(-c3cnc(C)nc3)cc12` [Compound 542, (S)-1-(2-(3-Acetyl-5-(2-methylpyrimidin-5-yl)-1H-indazol-1-yl)acetyl)-N-(6-bromopyridin-2-yl)azetidine-2-carboxamide], the 50% inhibitory concentration (IC50) was less than 1000 nM.
Same read-out and setting: next, `COc1ccc(-c2ccc3c(c2)c(C(C)=O)nn3CC(=O)N2CC[C@H]2C(=O)Nc2cccc(C)n2)cn1` [Compound 546, (S)-1-(2-(3-Acetyl-5-(6-methoxypyridin-3-yl)-1H-indazol-1-yl)acetyl)-N-(6-methylpyridin-2-yl)azetidine-2-carboxamide]: greater than 10000 nM; `CC(=O)c1nn(CC(=O)N2CC[C@H]2C(=O)Nc2cccc(C)n2)c2ccc(-c3cccc(C#N)c3)cc12` [Compound 547, (S)-1-(2-(3-Acetyl-5-(3-cyanophenyl)-1H-indazol-1-yl)acetyl)-N-(6-methylpyridin-2-yl)azetidine-2-carboxamide]: greater than 10000 nM; `CC(=O)c1nn(CC(=O)N2CC[C@H]2C(=O)Nc2cccc(C)n2)c2ccc(-c3cccnc3)cc12` [Compound 548, (S)-1-(2-(3-Acetyl-5-(pyridin-3-yl)-1H-indazol-1-yl)acetyl)-N-(6-methylpyridin-2-yl)azetidine-2-carboxamide]: greater than 10000 nM.
The same measure, in the same setting: next, `CC(=O)c1nn(CC(=O)N2CC[C@H]2C(=O)Nc2cccc(C)n2)c2ccc(-c3ccc(F)nc3)cc12` [Compound 549, (S)-1-(2-(3-Acetyl-5-(6-fluoropyridin-3-yl)-1H-indazol-1-yl)acetyl)-N-(6-methylpyridin-2-yl)azetidine-2-carboxamide]: greater than 10000 nM; `CC(=O)c1nn(CC(=O)N2[C@@H]3C[C@@H]3C[C@H]2C(=O)NCC(F)=C(C)C2CC2)c2ccc(-c3cnc(C)nc3)cc12` [Compound 551, (1R,3S,5R)-2-(2-(3-Acetyl-5-(2-methylpyrimidin-5-yl)-1H-indazol-1-yl)acetyl)-N-(3-cyclopropyl-2-fluorobut-2-en-1-yl)-2-azabicyclo[3.1.0]hexane-3-carboxamide]: less than 1000 nM; `CC(=O)c1nn(CC(=O)N2C[C@H](F)C[C@H]2C(=O)Nc2cccc(Br)n2)c2ccc(-c3cnc(Oc4ccncc4)nc3)cc12` [Compound 554, (2S,4R)-1-(2-(3-aAetyl-5-(2-(pyridin-4-yloxy)pyrimidin-5-yl)-1H-indazol-1-yl)acetyl)-N-(6-bromopyridin-2-yl)-4-fluoropyrrolidine-2-carboxamide]: less than 1000 nM.
Consider `CC(=O)c1nn(CC(=O)N2C[C@H](F)C[C@H]2C(=O)Nc2cccc(Br)n2)c2ccc(-c3cnc(COC(=O)N(C)C)nc3)cc12` [Compound 555, (5-(3-Acetyl-1-(2-((2S,4R)-2-((6-bromopyridin-2-yl)carbamoyl)-4-fluoropyrrolidin-1-yl)-2-oxoethyl)-1H-indazol-5-yl)pyrimidin-2-yl)methyl dimethylcarbamate], for which the IC50 is less than 1000 nM.
The same measure, in the same setting: next, `CC(=O)c1nn(CC(=O)N2C[C@H](F)C[C@H]2C(=O)Nc2cccc(Br)n2)c2ccc(-c3cnc(NS(C)(=O)=O)nc3)cc12` [Compound 556, (2S,4R)-1-(2-(3-Acetyl-5-(2-(methylsulfonamido)pyrimidin-5-yl)-1H-indazol-1-yl)acetyl)-N-(6-bromopyridin-2-yl)-4-fluoropyrrolidine-2-carboxamide]: less than 1000 nM.

The assay is the same for the next values; noted with them: Table 3; Human Factor D 80 nM, substrate Z-L-Lys-SBzl; read-out: IC50 (Stars).
On to `CC(=O)c1nn(CC(=O)N2[C@@H]3C[C@@H]3C[C@H]2C(=O)NC/C(F)=C(\C)c2cccc(Cl)c2)c2ccc(-c3cnc(C)nc3)cc12` [Compound 516, (1R,3S,5R)-2-(2-(3-Acetyl-5-(2-methylpyrimidin-5-yl)-1H-indazol-1-yl)acetyl)-N—((Z)-3-(3-chlorophenyl)-2-fluorobut-2-en-1-yl)-2-azabicyclo[3.1.0]hexane-3-carboxamide], for which the 50% inhibitory concentration (IC50) is less than 1000 nM.
The same measure, in the same setting: to `CC(=O)c1nn(CC(=O)N2C[C@H](F)C[C@H]2C(=O)Nc2nc(Br)c(F)cc2C)c2ccc(-c3cnc(C)nc3)cc12` [Compound 520, (2S,4R)-1-(2-(3-Acetyl-5-(2-methylpyrimidin-5-yl)-1H-indazol-1-yl)acetyl)-N-(6-bromo-5-fluoro-3-methylpyridin-2-yl)-4-fluoropyrrolidine-2-carboxamide] belongs less than 1000 nM.
As to `CC(=O)c1nn(CC(=O)N2C[C@H](F)C[C@H]2C(=O)Nc2cccc(Br)n2)c2ccc(-c3cnc(S(C)(=O)=O)nc3)cc12` [Compound 521, (2S,4R)-1-(2-(3-Acetyl-5-(2-(methylsulfonyl)pyrimidin-5-yl)-1H-indazol-1-yl)acetyl)-N-(6-bromopyridin-2-yl)-4-fluoropyrrolidine-2-carboxamide], the half-maximal inhibitory concentration (IC50) was less than 1000 nM.
In the case of `CC(=O)c1nn(CC(=O)N2C[C@H](F)C[C@H]2C(=O)Nc2cccc(Br)n2)c2ccc(-c3cnc(-n4cccn4)nc3)cc12` [Compound 522, (2S,4R)-1-(2-(5-(2-(1H-Pyrazol-1-yl)pyrimidin-5-yl)-3-acetyl-1H-indazol-1-yl)acetyl)-N-(6-bromopyridin-2-yl)-4-fluoropyrrolidine-2-carboxamide], the IC50 was less than 1000 nM.
Still for that read-out and setting: to `CC(=O)c1nn(CC(=O)N2[C@@H]3C[C@@H]3C[C@H]2C(=O)NC/C(F)=C(/C)c2ccccc2Cl)c2ccc(-c3cnc(C)nc3)cc12` [Compound 523] belongs less than 1000 nM; to `CC(=O)c1nn(CC(=O)N2[C@@H]3C[C@@H]3C[C@H]2C(=O)NC/C(F)=C(\C)c2ccccc2Cl)c2ccc(-c3cnc(C)nc3)cc12` [Compound 528], less than 1000 nM.
Still for that read-out and setting: to `COC(=O)Cc1ncc(-c2ccc3c(c2)c(C(C)=O)nn3CC(=O)N2C[C@H](F)C[C@H]2C(=O)Nc2cccc(Br)n2)cn1` [Compound 529, methyl 2-(5-(3-acetyl-1-(2-((2S,4R)-2-((6-bromopyridin-2-yl)carbamoyl)-4-fluoropyrrolidin-1-yl)-2-oxoethyl)-1H-indazol-5-yl)pyrimidin-2-yl)acetate] belongs less than 1000 nM; to `CC(=O)c1nn(CC(=O)N2[C@@H](C)CC[C@H]2C(=O)Nc2cccc(Br)n2)c2ccc(-c3cnc(C)nc3)cc12` [Compound 530, (2S,5S)-1-(2-(3-Acetyl-5-(2-methylpyrimidin-5-yl)-1H-indazol-1-yl)acetyl)-N-(6-bromopyridin-2-yl)-5-methylpyrrolidine-2-carboxamide], less than 1000 nM.
The same measure, in the same setting: to `CSc1ncc(-c2ccc3c(c2)c(C(C)=O)nn3CC(=O)N2C[C@H](F)C[C@H]2C(=O)Nc2cccc(Br)n2)cn1` [Compound 531, (2S,4R)-1-(2-(3-Acetyl-5-(2-(methylthio)pyrimidin-5-yl)-1H-indazol-1-yl)acetyl)-N-(6-bromopyridin-2-yl)-4-fluoropyrrolidine-2-carboxamide] belongs less than 1000 nM; to `CC(=O)c1nn(CC(=O)N2C[C@H](F)C[C@H]2C(=O)Nc2cccc(Br)n2)c2ccc(-c3cnc(CC(N)=O)nc3)cc12` [Compound 532, (2S,4R)-1-(2-(3-Acetyl-5-(2-(2-amino-2-oxoethyl)pyrimidin-5-yl)-1H-indazol-1-yl)acetyl)-N-(6-bromopyridin-2-yl)-4-fluoropyrrolidine-2-carboxamide], less than 1000 nM.
As for `CC(=O)c1nn(CC(=O)N2C[C@H](F)C[C@H]2C(=O)Nc2cccc(Br)n2)c2ccc(-c3cnc(CC(=O)O)nc3)cc12` [Compound 533, 2-(5-(3-Acetyl-1-(2-((2S,4R)-2-((6-bromopyridin-2-yl)carbamoyl)-4-fluoropyrrolidin-1-yl)-2-oxoethyl)-1H-indazol-5-yl)pyrimidin-2-yl)acetic acid], the half-inhibitory concentration (IC50) is less than 1000 nM.
The same measure, in the same setting: to `CCc1ccc(Br)nc1NC(=O)[C@@H]1C[C@@H](F)CN1C(=O)Cn1nc(C(C)=O)c2cc(-c3cnc(C)nc3)ccc21` [Compound 534, (2S,4R)-1-(2-(3-Acetyl-5-(2-methylpyrimidin-5-yl)-1H-indazol-1-yl)acetyl)-N-(6-bromo-3-ethylpyridin-2-yl)-4-fluoropyrrolidine-2-carboxamide] belongs less than 1000 nM; to `Cc1cccc(NC(=O)[C@@H]2[C@H]3CC[C@H](C3)N2C(=O)Cn2cc(C(N)=O)c3cc(-c4cnc5c(c4)CCC5)ccc32)n1` [Compound 535, 5-(6,7-Dihydro-5H-cyclopenta[b]pyridin-3-yl)-1-(2-((1R,3S,4S)-3-(6-methylpyridin-2-ylcarbamoyl)-2-azabicyclo[2.2.1]heptan-2-yl)-2-oxoethyl)-1H-indole-3-carboxamide], greater than 10000 nM.
For `Cc1cccc(NC(=O)[C@@H]2[C@H]3CC[C@H](C3)N2C(=O)Cn2cc(C(N)=O)c3cc(-c4ccc5c(c4)CC5)ccc32)n1` [Compound 536, 5-(1,2-Dihydrocyclobutabenzen-4-yl)-1-(2-((1R,3S,4S)-3-(6-methylpyridin-2-ylcarbamoyl)-2-azabicyclo[2.2.1]heptan-2-yl)-2-oxoethyl)-1H-indole-3-carboxamide], the half-inhibitory concentration (IC50) is greater than 10000 nM.
As to `CCOC(=O)Cc1ncc(-c2ccc3c(c2)c(C(C)=O)nn3CC(=O)N2C[C@H](F)C[C@H]2C(=O)Nc2cccc(Br)n2)cn1` [Compound 537, Ethyl 2-(5-(3-acetyl-1-(2-((2S,4R)-2-((6-bromopyridin-2-yl)carbamoyl)-4-fluoropyrrolidin-1-yl)-2-oxoethyl)-1H-indazol-5-yl)pyrimidin-2-yl)acetate], the IC50 was less than 1000 nM.
Regarding `CC(=O)c1nn(CC(=O)N2C[C@H](F)C[C@H]2C(=O)Nc2nc(Br)ccc2C2CC2)c2ccc(-c3cnc(C)nc3)cc12` [Compound 538, (2S,4R)-1-(2-(3-Acetyl-5-(2-methylpyrimidin-5-yl)-1H-indazol-1-yl)acetyl)-N-(6-bromo-3-cyclopropylpyridin-2-yl)-4-fluoropyrrolidine-2-carboxamide], the IC50 is less than 1000 nM.
On the same count and under the same terms, to `CCOC(=O)Cc1ncc(-c2ccc3c(c2)c(C(C)=O)nn3CC(=O)N2C[C@H](F)C[C@H]2C(=O)Nc2ccc(F)c(Br)n2)cn1` [Compound 539, ethyl 2-(5-(3-Acetyl-1-(2-((2S,4R)-2-((6-bromo-5-fluoropyridin-2-yl)carbamoyl)-4-fluoropyrrolidin-1-yl)-2-oxoethyl)-1H-indazol-5-yl)pyrimidin-2-yl)acetate] belongs less than 1000 nM.
